“And” between values parts separate entries of the source, which are not always exact repeats. Equal values may be shown once.
Experiments:
[1] = Stability of [14C]DVS in control dog plasma; format: in vitro ADME; conditions: 37° C., up to 24 hours
Procedure: The stability of [^14C]DVS in dog plasma was determined. [^14C]DVS (0.012 mg/mL, final concentration) was added to control dog plasma and incubated in a shaking water bath set to 37° C. Duplicate aliquots (1 mL) were removed at 0, 1, 4, 8, and 24 hours. Samples were extracted as described above and radiopurity assayed by HPLC analysis.

[2] = Stability of [14C]DVS in control dog urine; format: in vitro ADME; conditions: 37° C., up to 24 hours
Procedure: The stability of [^14C]DVS in dog urine was determined. [^14C]DVS (0.025 mg/mL, final concentration) was added to control dog urine and incubated in a shaking water bath set to 37° C. Aliquots (1 mL) were removed at 0, 1, 4, 8 and 24 hours. Samples were extracted as described above and radiopurity assayed by HPLC analysis.

[3] = Whole blood and plasma radioactivity and partitioning after single oral [14C]DVS, dogs; format: in vivo, beagle dogs; conditions: single oral 30 mg/kg; for Radioactivity in Plasma, Individual Dogs / Radioactivity in Plasma, Mean ± S.D. / Radioactivity in Whole Blood, Individual Dogs: listed as [^14C]DVS, 30 mg/kg
Procedure: Male beagle dogs (n=4), weighing between 14.4 and 16.2 kg at the time of dosing (from an in-house colony), were used. For ease of reporting, the animals were designated numbers 5 through 8. Dose preparation, animal dosing and sample collection were performed at Wyeth Research, Pearl River, N.Y.
The oral dosing solution was prepared by suspending 19.0 mg of [^14C]DVS and 4168.3 mg of unlabeled DVS in 270 mL of vehicle (0.25% polysorbate 80, 0.5% methylcellulose in water). The radiochemical purity, specific activity and concentration of [^14C]DVS (bulk drug and dosing solution) were determined using HPLC with radiometric detection. Duplicate aliquots of the dosing solution were taken pre-, mid- and post-dose for the determination of specific activity and radioactivity concentrations of the dosing solution.
The target dose for each animal was 30 mg/kg (free base; 10 mg/mL, 3 mL/kg, 30 μCi/kg) [^14C]DVS via oral gavage. The target dose was selected because it has been used in previous pharmacokinetic studies.
Whole blood (approximately 10 mL), collected into heparinized tubes at 1, 4, 8, and 24 hours post-dose (N=4 for each time point), was analyzed. One mL of blood was transferred to a fresh tube to be used for determination of radioactivity concentrations. Plasma was obtained by centrifugation at 4° C. within two hours of blood collection. Plasma and whole blood samples were shipped on dry ice to Wyeth Research, Biotransformation Division (Collegeville, Pa.) for analysis. Triplicate aliquots of whole blood (200 μL) were placed into combusto-cones and allowed to air dry. These samples were then oxidized and radioactivity content determined. Triplicate aliquots (100 μL) of the plasma samples were analyzed for radioactivity content. The remaining plasma was stored at −70° C. until metabolite analysis.
For each dog, urine and feces were collected separately, with urine collected on dry ice and feces collected at room temperature. Collections were from 0-8 and 8-24 hours for urine and 0-24 hours for feces. Urine and fecal samples were shipped on dry ice to Wyeth Research, Biotransformation Division (Collegeville, Pa.) for analysis. Fecal samples were homogenized in approximately five volumes (v/w) of water. Aliquots of approximately 0.2 grams of the homogenate were placed into combusto-cones, weighed and allowed to air dry. These samples were then oxidized and radioactivity content determined. The remaining urine samples and fecal homogenates were stored at −70° C. until metabolite analysis. Blood samples and fecal homogenates were oxidized in a Model 307 Tri-Carb sample oxidizer, using Carbosorb® E (6 mL) as trapping agent and PermaFluor® E^+ (10 mL) as scintillant. The background reading (average of control blood or fecal samples) was subtracted from each sample reading. Aliquots of urine and plasma were analyzed directly following the addition of 10 mL of Ultima Gold™ scintillation fluid.
All radioactivity determinations were made using a Tri-Carb Model 3100TR liquid scintillation counter (Packard BioScience, Boston, Mass.) with an Ultima GOl™ or toluene standard curve. Counts per minute (CPM) were converted to disintegrations per minute (DPM) by use of external standards of known radioactivity. The quench of each standard was determined by the transformed spectral index of an external radioactive standard (tSIE). The lower limits of detection were defined as twice background.

## CN(C)CC(c1ccc(O)cc1)C1(O)CCCCC1.O=C(O)CCC(=O)O (stereo not drawn) [DVS, O-desmethylvenlafaxine succinate]
[1]
  Stability of [14C]DVS in control dog plasma: stable
[2]
  Stability of [14C]DVS in control dog urine: stable
[3]; 1 hr
  Radioactivity in Whole Blood, Mean ± S.D.: 8.37 ± 1.45 μg equivalents/mL
  Radioactivity in Plasma, Individual Dogs: 14.6 μg equivalents/mL and 11.5 μg equivalents/mL and 9.56 μg equivalents/mL and 17.5 μg equivalents/mL
  Radioactivity in Plasma, Mean ± S.D.: 13.3 μg equivalents/mL and 13.3 ± 3.5 μg equivalents/mL
  Radioactivity in Whole Blood, Individual Dogs: 8.56 μg equivalents/mL and 8.61 μg equivalents/mL and 6.40 μg equivalents/mL and 9.91 μg equivalents/mL
[3]; 4 hr
  Radioactivity in Whole Blood, Mean ± S.D.: 8.58 ± 0.59 μg equivalents/mL
  Radioactivity in Plasma, Individual Dogs: 17.0 μg equivalents/mL and 16.8 μg equivalents/mL and 16.5 μg equivalents/mL and 17.1 μg equivalents/mL
  Radioactivity in Plasma, Mean ± S.D.: 16.9 μg equivalents/mL and 16.9 ± 0.3 μg equivalents/mL
  Radioactivity in Whole Blood, Individual Dogs: 8.16 μg equivalents/mL and 8.03 μg equivalents/mL and 8.82 μg equivalents/mL and 9.30 μg equivalents/mL
[3]; 8 hr
  Radioactivity in Whole Blood, Mean ± S.D.: 3.84 ± 1.01 μg equivalents/mL
  Radioactivity in Plasma, Individual Dogs: 4.51 μg equivalents/mL and 9.12 μg equivalents/mL and 10.2 μg equivalents/mL and 5.87 μg equivalents/mL
  Radioactivity in Plasma, Mean ± S.D.: 7.43 μg equivalents/mL and 7.43 ± 2.68 μg equivalents/mL
  Radioactivity in Whole Blood, Individual Dogs: 3.30 μg equivalents/mL and 3.79 μg equivalents/mL and 5.27 μg equivalents/mL and 2.98 μg equivalents/mL
[3]; 24 hr
  Radioactivity in Whole Blood, Mean ± S.D.: 0.48 ± 0.20 μg equivalents/mL
  Radioactivity in Plasma, Individual Dogs: 0.66 μg equivalents/mL and 0.86 μg equivalents/mL and 1.14 μg equivalents/mL and 0.56 μg equivalents/mL
  Radioactivity in Plasma, Mean ± S.D.: 0.81 μg equivalents/mL and 0.81 ± 0.25 μg equivalents/mL
  Radioactivity in Whole Blood, Individual Dogs: 0.38 μg equivalents/mL and 0.47 μg equivalents/mL and 0.75 μg equivalents/mL and 0.31 μg equivalents/mL
